How the values were obtained:
L5178Y [1] = assay: Cytotoxicity against mouse L5178Y cells assessed as reduction in cell viability after 72 hrs by MTT assay; format: cell-based
[2] = target: T1, ATP-dependent translocase ABCB1 (Homo sapiens, UniProt P08183); assay: Modulation of human ABCB1 expressed in mouse L5178Y cells assessed as fluorescence activity ratio at 20 uM pretreated for 10 mins followed by rhodamine-123 addition measured after 20 mins by flow cytometry (reference value: 0.87); format: cell-based
L5178Y [3] = assay: Cytotoxicity against mouse L5178Y cells transfected with human ABCB1 assessed as reduction in cell viability after 72 hrs by MTT assay; format: functional, cell-based
[4] = Resistance ratio of IC50 for human EPP85-181P cells to IC50 for human EPP85-181RDB cells; format: functional
[5] = target: T1, ATP-dependent translocase ABCB1; assay: Modulation of human ABCB1 expressed in mouse L5178Y cells assessed as fluorescence activity ratio at 2 uM pretreated for 10 mins followed by rhodamine-123 addition measured after 20 mins by flow cytometry (reference value: 0.87); format: cell-based
[6] = Resistance ratio of IC50 for human EPP85-181P cells to IC50 for human EPP85-181RNOV cells; format: functional
[7] = target: T1, ATP-dependent translocase ABCB1; assay: Inhibition of human ABCB1 expressed in mouse L5178Y cells assessed as potentiation of doxorubicin-induced cytotoxicity by measuring combination index at 100:1 compound to doxorubicin ratio after 48 hrs by MTT assay; format: cell-based
[8] = Resistance ratio of IC50 for human EPG85-257P cells to IC50 for human EPG85-257RNOV cells; format: functional
[9] = Cytotoxicity against human EPG85-257RNOV cells assessed as reduction in cell viability after 5 days by SRB assay; format: functional, cell-based; conditions: 120 h
[10] = Resistance ratio of IC50 for human EPG85-257P cells to IC50 for human EPG85-257RDB cells; format: functional
[11] = Induction of apoptosis in human EPP85-181RDB cells at 30 uM after 72 hrs by annexin-V/propidium iodide staining based flow cytometric method relative to control; format: functional
[12] = Induction of apoptosis in human EPP85-181RNOV cells at 30 uM after 72 hrs by annexin-V/propidium iodide staining based flow cytometric method relative to control; format: functional
[13] = target: T1, ATP-dependent translocase ABCB1; assay: Inhibition of human ABCB1 expressed in mouse L5178Y cells assessed as potentiation of doxorubicin-induced cytotoxicity by measuring combination index at 15:1 compound to doxorubicin ratio after 48 hrs by MTT assay; format: cell-based
[14] = Cytotoxicity against human EPP85-181P cells assessed as reduction in cell viability after 5 days by SRB assay; format: cell-based; conditions: 120 h
[15] = Cytotoxicity against human EPP85-181RDB cells assessed as reduction in cell viability after 5 days by SRB assay; format: functional, cell-based; conditions: 120 h
[16] = Cytotoxicity against human EPP85-181RNOV cells assessed as reduction in cell viability after 5 days by SRB assay; format: functional, cell-based; conditions: 120 h
[17] = target: T1, ATP-dependent translocase ABCB1; assay: Inhibition of human ABCB1 expressed in mouse L5178Y cells assessed as potentiation of doxorubicin-induced cytotoxicity by measuring combination index at 5:1 compound to doxorubicin ratio after 48 hrs by MTT assay; format: cell-based
[18] = target: T2, ABCB1 (P-glycoprotein) ATPase (Homo sapiens, UniProt P08183); assay: Inhibition of human ABCB1 ATPase activity expressed in Sf9 insect cell membranes assessed as reduction in verapamil-stimulated vanadate-sensitive ATPase activity at 3.13 to […] uM measured after 10 mins by colorimetric method relative to control; conditions: Sf9 insect cell membranes expressing human ABCB1, probe verapamil (ATPase stimulator)
[19] = target: T1, ATP-dependent translocase ABCB1; assay: Activation of human ABCB1 ATPase activity expressed in Sf9 insect cell membranes assessed as increase in vanadate-sensitive basal ATPase activity at 0.78 to 100 uM measured after 10 mins by colorimetric method relative to control
[20] = target: T2, ABCB1 (P-glycoprotein) ATPase; assay: Inhibition of human ABCB1 ATPase activity expressed in Sf9 insect cell membranes assessed as reduction in verapamil-stimulated vanadate-sensitive ATPase activity at 25 to 100 uM measured after 10 mins by colorimetric method relative to control; conditions: Sf9 insect cell membranes expressing human ABCB1, probe verapamil (ATPase stimulator)
[21] = target: T1, ATP-dependent translocase ABCB1; assay: Inhibition of human ABCB1 expressed in mouse L5178Y cells assessed as potentiation of doxorubicin-induced cytotoxicity by measuring combination index at 50:1 compound to doxorubicin ratio after 48 hrs by MTT assay; format: cell-based
[22] = target: T1, ATP-dependent translocase ABCB1; assay: Inhibition of human ABCB1 expressed in mouse L5178Y cells assessed as potentiation of doxorubicin-induced cytotoxicity by measuring combination index at 25:1 compound to doxorubicin ratio after 48 hrs by MTT assay; format: cell-based
[23] = Induction of apoptosis in human EPG85-257P cells assessed as caspase-3 activation at 30 uM after 72 hrs by flow cytometric method relative to control; format: cell-based; conditions: EPG85-257P cells, read-out: FC
[24] = Induction of apoptosis in human EPG85-257P cells at 30 uM after 72 hrs by annexin-V/propidium iodide staining based flow cytometric method relative to control; format: cell-based
[25] = Induction of apoptosis in human EPP85-181RNOV cells assessed as caspase-3 activation at 30 uM after 72 hrs by flow cytometric method relative to control; format: functional
[26] = Induction of apoptosis in human EPG85-257RNOV cells assessed as caspase-3 activation at 30 uM after 72 hrs by flow cytometric method relative to control; format: functional
[27] = Induction of apoptosis in human EPG85-257RDB cells assessed as caspase-3 activation at 30 uM after 72 hrs by flow cytometric method relative to control; format: functional
[28] = Induction of apoptosis in human EPG85-257RDB cells at 30 uM after 72 hrs by annexin-V/propidium iodide staining based flow cytometric method relative to control; format: functional
[29] = Induction of apoptosis in human EPG85-257RNOV cells at 30 uM after 72 hrs by annexin-V/propidium iodide staining based flow cytometric method relative to control; format: functional
[30] = target: T1, ATP-dependent translocase ABCB1; assay: Inhibition of human ABCB1 expressed in mouse L5178Y cells assessed as potentiation of doxorubicin-induced cytotoxicity by measuring combination index at 400:1 compound to doxorubicin ratio after 48 hrs by MTT assay; format: cell-based
[31] = target: T1, ATP-dependent translocase ABCB1; assay: Inhibition of human ABCB1 ATPase activity expressed in Sf9 insect cell membranes assessed as reduction in verapamil-stimulated vanadate-sensitive ATPase activity at 50 to 100 uM measured after 10 mins by colorimetric method
[32] = target: T2, ABCB1 (P-glycoprotein) ATPase; assay: Inhibition of human ABCB1 ATPase activity expressed in Sf9 insect cell membranes assessed as reduction in verapamil-stimulated vanadate-sensitive ATPase activity at 1.56 to 25 uM measured after 10 mins by colorimetric method relative to control; conditions: Sf9 insect cell membranes expressing human ABCB1, probe verapamil (ATPase stimulator)
[33] = target: T1, ATP-dependent translocase ABCB1; assay: Inhibition of human ABCB1 expressed in mouse L5178Y cells assessed as potentiation of doxorubicin-induced cytotoxicity by measuring combination index at 10:1 compound to doxorubicin ratio after 48 hrs by MTT assay; format: cell-based

T1 sequence (P08183 whole entry): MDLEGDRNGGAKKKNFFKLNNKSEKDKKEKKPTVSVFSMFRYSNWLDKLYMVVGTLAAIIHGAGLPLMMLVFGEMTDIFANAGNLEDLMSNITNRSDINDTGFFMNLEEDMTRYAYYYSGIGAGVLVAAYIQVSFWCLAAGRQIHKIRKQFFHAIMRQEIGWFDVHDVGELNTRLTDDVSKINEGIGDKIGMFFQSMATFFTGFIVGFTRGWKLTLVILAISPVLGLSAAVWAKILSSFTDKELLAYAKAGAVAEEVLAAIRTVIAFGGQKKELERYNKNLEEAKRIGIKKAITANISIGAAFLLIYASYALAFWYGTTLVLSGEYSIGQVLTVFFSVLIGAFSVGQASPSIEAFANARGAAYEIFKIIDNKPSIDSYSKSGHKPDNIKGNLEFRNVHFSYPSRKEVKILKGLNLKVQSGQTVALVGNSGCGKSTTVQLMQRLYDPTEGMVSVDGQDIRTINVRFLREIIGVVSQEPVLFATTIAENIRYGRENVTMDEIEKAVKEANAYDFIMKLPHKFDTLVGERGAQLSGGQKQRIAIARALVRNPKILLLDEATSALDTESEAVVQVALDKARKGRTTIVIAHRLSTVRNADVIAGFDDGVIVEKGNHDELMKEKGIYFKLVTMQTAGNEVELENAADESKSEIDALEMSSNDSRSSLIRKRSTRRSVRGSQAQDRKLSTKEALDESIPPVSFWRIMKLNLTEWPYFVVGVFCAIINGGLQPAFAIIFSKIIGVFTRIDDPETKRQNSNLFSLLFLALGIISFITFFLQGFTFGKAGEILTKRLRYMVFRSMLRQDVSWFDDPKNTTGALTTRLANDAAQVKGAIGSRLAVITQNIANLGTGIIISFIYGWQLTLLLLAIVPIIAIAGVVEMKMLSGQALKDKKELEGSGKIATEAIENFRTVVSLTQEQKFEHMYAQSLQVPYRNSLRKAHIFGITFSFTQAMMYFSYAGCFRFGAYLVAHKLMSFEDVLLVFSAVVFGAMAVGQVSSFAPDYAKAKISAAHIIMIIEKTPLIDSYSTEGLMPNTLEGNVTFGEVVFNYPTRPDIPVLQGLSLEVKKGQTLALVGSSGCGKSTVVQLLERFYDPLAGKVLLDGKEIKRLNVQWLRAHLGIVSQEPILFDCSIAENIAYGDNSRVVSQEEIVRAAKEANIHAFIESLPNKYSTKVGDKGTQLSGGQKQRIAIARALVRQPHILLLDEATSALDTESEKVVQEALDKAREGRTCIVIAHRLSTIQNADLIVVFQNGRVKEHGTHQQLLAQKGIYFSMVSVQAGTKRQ
T2 sequence (P08183 whole entry): as above

| Compound | IC50 (L5178Y [1]) | Ratio [2] | IC50 (L5178Y [3]) | Ratio [5] | Ratio IC50 [10] | also measured |
| --- | --- | --- | --- | --- | --- | --- |
| C/C1=C/[C@H]2[C@@H](OC(=O)c3ccc(C(F)(F)F)cc3)[C@@H](C)C[C@]2(O)C(=O)/C(C)=C/[C@@H]2[C@H](CC1)C2(C)C | > 19 µM | 9.9 | > 80 µM | 3 |  | Ratio IC50 [4]: 0.4 |
| C/C1=C/[C@H]2[C@@H](OC(=O)c3ccc(-c4ccccc4)cc3)[C@@H](C)C[C@]2(O)C(=O)/C(C)=C/[C@@H]2[C@H](CC1)C2(C)C | > 19 µM | 19 | > 80 µM | 4.8 |  | Ratio IC50 [6]: 0.4; Ratio IC50 [4]: 0.4 |
| CC(=O)O[C@]12C[C@H](C)[C@H](OC(=O)c3ccc(-c4ccccc4)cc3)[C@@H]1/C=C(/C)CC[C@H]1[C@@H](/C=C(\C)C2=O)C1(C)C | > 19 µM | 37.2 | > 19 µM | 11.6 |  | CI [7]: 0.32; Ratio IC50 [8]: 0.2 |
| CC(=O)O[C@]12C[C@H](C)[C@H](OC(=O)c3ccc(C(F)(F)F)cc3)[C@@H]1/C=C(/C)CC[C@H]1[C@@H](/C=C(\C)C2=O)C1(C)C | > 19 µM | 25.4 | > 80 µM | 9.4 | 0.4 | IC50 [9]: < 10 µM; Ratio IC50 [8]: 0.2 |
| CC(=O)O[C@]12C[C@H](C)[C@H](OC(=O)C34CC5CC(CC(C5)C3)C4)[C@@H]1/C=C(/C)CC[C@H]1[C@@H](/C=C(\C)C2=O)C1(C)C | > 19 µM | 29 | > 19 µM | 12.6 |  | fold change (FC) [11]: 17; fold change (FC) [12]: 5; IC50 [9]: < 10 µM; CI [13]: 1.11; IC50 [14]: 8.61 µM; IC50 [15]: 5.86 µM; IC50 [16]: 6.63 µM |
| CCOC(=O)O[C@H]1[C@@H](C)C[C@]2(OC(C)=O)C(=O)/C(C)=C/[C@@H]3[C@H](CC/C(C)=C\[C@@H]12)C3(C)C | > 19 µM | 18.7 | > 19 µM | 3.1 | 0.4 | CI [17]: 1.22; IC50 [9]: < 10 µM |
| CC(=O)O[C@]12C[C@H](C)[C@H](O)[C@@H]1/C=C(\C)CC[C@H]1[C@@H](/C=C(\C)C2=O)C1(C)C [JOLKINOL D] |  |  |  |  |  | inhibition at 10 min [18]: 14 to 40%; Activity [19]: 66 to 87%; inhibition at 10 min [20]: 9 to 33% |
| COc1cccc(C(=O)O[C@H]2[C@@H](C)C[C@]3(O)C(=O)/C(C)=C/[C@@H]4[C@H](CC/C(C)=C\[C@@H]23)C4(C)C)c1 | > 19 µM | 32.8 | > 19 µM | 12 |  | CI [21]: 0.38 |
| COc1cccc(C(=O)O[C@H]2[C@@H](C)C[C@]3(OC(C)=O)C(=O)/C(C)=C/[C@@H]4[C@H](CC/C(C)=C\[C@@H]23)C4(C)C)c1 | > 19 µM | 36.4 | > 19 µM | 26.1 | 0.3 | CI [22]: 0.84 |
| CC(=O)O[C@]12C[C@H](C)[C@H](OC(=O)c3cccc(C(F)(F)F)c3)[C@@H]1/C=C(/C)CC[C@H]1[C@@H](/C=C(\C)C2=O)C1(C)C |  |  |  |  |  | fold change (FC) [11]: 3.5; fold change (FC) [12]: 4.5; fold induction at 72 h, 30 µM [23]: 6 to 9; fold change (FC) [24]: 4; fold change (FC) [25]: 12; fold change (FC) [26]: 6 - 9; fold change (FC) [27]: 6 - 9; fold change (FC) [28]: 6; fold change (FC) [29]: 4 |
| CC(=O)O[C@]12C[C@H](C)[C@H](OC(=O)c3ccc4ccccc4c3)[C@@H]1/C=C(/C)CC[C@H]1[C@@H](/C=C(\C)C2=O)C1(C)C | > 19 µM | 31.9 | > 19 µM | 11.9 |  | CI [30]: 0.06 |
| COc1ccccc1C(=O)O[C@H]1[C@@H](C)C[C@]2(OC(C)=O)C(=O)/C(C)=C/[C@@H]3[C@H](CC/C(C)=C\[C@@H]12)C3(C)C | > 19 µM | 39.6 | > 19 µM | 33.3 | 0.2 | inhibition (INH) [31]: Active; inhibition at 10 min [32]: 100%; CI [33]: 0.09 |
| CC(=O)O[C@]12C[C@H](C)[C@H](OC(=O)c3cccc(C)c3)[C@@H]1/C=C(/C)CC[C@H]1[C@@H](/C=C(\C)C2=O)C1(C)C | > 19 µM | 18 | > 80 µM | 2.2 |  | IC50 [9]: < 10 µM |
| CC(=O)O[C@]12C[C@H](C)[C@H](OC(=O)/C=C/c3ccccc3)[C@@H]1/C=C(/C)CC[C@H]1[C@@H](/C=C(\C)C2=O)C1(C)C | > 19 µM | 41.5 | > 19 µM | 28.6 | 0.2 | CI [21]: 1.13 |

From ChEMBL document CHEMBL4190189, “Exploring Jolkinol D Derivatives To Overcome Multidrug Resistance in Cancer” (J Nat Prod, 2017)
